% of control data for 1 compound are collected here from ChEMBL document CHEMBL5465560, “Selectivity Literature for EUbOPEN Chemogenomic Library” (2024).

Where a chain is given by its changes, count along the chain named.

What all share (settings): at 1 µM
Test [1] has as its system T1, Receptor-type tyrosine-protein kinase FLT3 (Homo sapiens), P36888 [N841I].
T1 sequence (whole entry): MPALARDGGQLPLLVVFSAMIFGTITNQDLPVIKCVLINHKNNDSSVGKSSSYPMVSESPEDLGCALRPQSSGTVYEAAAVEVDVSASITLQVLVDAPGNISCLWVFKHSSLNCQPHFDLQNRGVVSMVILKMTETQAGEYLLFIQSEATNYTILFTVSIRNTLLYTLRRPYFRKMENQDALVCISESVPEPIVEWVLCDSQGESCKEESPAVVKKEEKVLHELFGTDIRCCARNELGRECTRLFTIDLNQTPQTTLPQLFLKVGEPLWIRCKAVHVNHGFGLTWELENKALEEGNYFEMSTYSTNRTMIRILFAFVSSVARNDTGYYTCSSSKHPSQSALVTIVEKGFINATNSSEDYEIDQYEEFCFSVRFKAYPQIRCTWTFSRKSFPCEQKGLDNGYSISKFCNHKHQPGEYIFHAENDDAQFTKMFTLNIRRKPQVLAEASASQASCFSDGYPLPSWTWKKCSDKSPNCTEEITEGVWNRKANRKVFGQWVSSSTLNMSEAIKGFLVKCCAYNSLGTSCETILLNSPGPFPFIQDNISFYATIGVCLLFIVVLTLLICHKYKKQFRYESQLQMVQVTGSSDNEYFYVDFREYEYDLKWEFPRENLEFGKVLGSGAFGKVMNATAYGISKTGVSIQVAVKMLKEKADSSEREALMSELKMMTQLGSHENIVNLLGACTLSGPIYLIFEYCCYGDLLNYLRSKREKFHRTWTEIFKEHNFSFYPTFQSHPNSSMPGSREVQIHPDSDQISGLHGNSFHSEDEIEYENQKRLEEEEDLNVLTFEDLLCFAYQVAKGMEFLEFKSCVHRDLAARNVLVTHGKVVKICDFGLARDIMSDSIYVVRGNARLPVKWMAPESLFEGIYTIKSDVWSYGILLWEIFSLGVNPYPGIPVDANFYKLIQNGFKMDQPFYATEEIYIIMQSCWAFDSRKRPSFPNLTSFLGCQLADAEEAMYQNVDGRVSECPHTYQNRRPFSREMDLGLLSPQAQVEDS
The test is described as follows: (§1) Selectivity interaction (KinomeScan (DiscoverX)) EUB0000311b FLT3.

Test [2] concerns T2, Receptor-type tyrosine-protein kinase FLT3 (Homo sapiens), P36888 [D835H].
T2 sequence (whole entry): T1 sequence (whole entry) with D835H, I841N
The test is described as §1.

For test [3], the system named is T3, Receptor-type tyrosine-protein kinase FLT3 (Homo sapiens), P36888 [D835Y].
T3 sequence (whole entry): T1 sequence (whole entry) with D835Y, I841N
The test is described as §1.

`CCc1ccccc1C(=O)Nc1n[nH]c2c(C)c(F)c(C3C(C#N)=C(C)N(C)C(C)=C3C#N)cc12` [BAY-3827]: the % of control in test [1] stood at 0%; in test [2] it was 16%; in test [3] it was 2.5%.
